According to US11771715B2 (Orna Therapeutics, Inc., priority 2019, dated 2023):

Tests used:
[1] = Table 3, representative compounds of Formula (III); cited from earlier work
[2] = tested on: 1C1C7 cells; experiment: 5′ UTR variants in 1C1C7 cells (Ex. 54); assay type: cell-based; conditions: CK IRES with 5′ UTR variants
From the text: This example describes modifications of circular RNAs by inserting 5′ UTR variants. […] 1C1C7 cells were transfected with the circular RNAs.

[3] = tested on: HEK293 cells; experiment: GLuc luminescence by IRES in HEK293 cells (Ex. 8A); conditions: 24 hours, 100 ng circularization reaction
[4] = tested on: 1C1C7 cells; experiment: GLuc luminescence and functional stability by IRES in 1C1C7 cells (Ex. 8A); conditions: 24 hours
[5] = tested on: 1C1C7 cells; experiment: Expression of anti-murine CD19 CAR by IRES variant in lipotransfected 1C1C7 cells (Ex. 41); assay type: cell-based; conditions: 24 hours after lipotransfection
Protocol: After 24 hours, 1C1C7 cells were incubated with His-tagged recombinant murine CD19 (Sino Biological) protein, then stained with a secondary anti-His antibody. Afterwards, the cells were analyzed via flow cytometry.

Molecule: CCCCCCCCCCCCC(CCCCCCCCCC)C(=O)OCCCCCCN(CCCCO)CCCCOC(=O)C(CCCCCCCCCC)CCCCCCCCCCCC (stereo not drawn) [III-27]
- pKa [1]: 5.77

Molecule: UTR2: 5′ UTR variant: canonical Kozak with "a 36-nucleotide unstructured/low GC spacer sequence" added (DNA AATAAGAGAGAAAAGAAGAGTAAGAAGAAATATAAGAGCCACC; expressed or natural sequence)
- translation, luminescence [2]: more effective

Molecule: UTR3: 5′ UTR variant: "a higher-GC/structured spacer with a kozak sequence" (DNA CGAACTAGTATTCTTCTGGTCCCCACAGACTCAGAGAGAACCCGCCACC; expressed or natural sequence)
- translation, luminescence [2]: did not show the same benefit

B1: Crohivirus B IRES: one of the "selected IRES sequences" modified (e.g., truncated); "SEQ ID NOs: 348-389" (nucleic acid)
DNA: GTATAAGAGACAGGTGTTTGCCTTGTCTTCGGACTGGCATCTTGGGACCAACCCCCCTTTTCCCCAGCCATGGGTTAAATGGCAATAAAGGACGTAACAACTTTGTAACCATTAAGCTTTGTAATTTTGTAACCACTAAGCTTTGTGCACATAATGTAACCATCAAGCTTGTTAGTCCCAGCAGGAGGTTTGCATGCTTGTAGCCGAAATGGGGCTCGACCCCCCATAGTAGGATACTTGATTTTGCATTCCATTGTGGACCTGCAAACTCTACACATAGAGGCTTTGTCTTGCATCTAAACACCTGAGTACAGTGTGTACCTAGACCCTATAGTACGGGAGGACCGTTTGTTTCCTCAATAACCCTACATAATAGGCTAGGTGGGCATGCCCAATTTGCAAGATCCCAGACTGGGGGTCGGTCTGGGCAGGGTTAGATCCCTGTTAGCTACTGCCTGATAGGGTGGTGCTCAACCATGTGTAGTTTAAATTGAGCTGTTCATATACC
modifications: Crohivirus B
- luminescence in supernatant [3]: produced the highest luminescence

B2: Salivirus A SZ-1 (nucleic acid)
DNA: TCTGTCCTCACCCCATCTTCCCTTCTTTCCTGCACCGTTACGCTTACTCGCATGTGCATTGAGTGGTGCACGTGCTTGAACAAACAGCTACACTCACATGGGGGCGGGTTTTCCCGCCCTGCGGCCTCTCGCGAGGCCCACCCCTCCCCTTCCTCCCATAACTACAGTGCTTTGGTAGGTAAGCATCCTGATCCCCCGCGGAAGCTGCTCACGTGGCAACTGTGGGGACCCAGACAGGTTATCAAAGGCACCCGGTCTTTCCGCCTTCAGGAGTATCCCTGCTAGTGAATTCTAGTAGGGCTCTGCTTGGTGCCAACCTCCCCCAAATGCGCGCTGCGGGAGTGCTCTTCCCCAACTCACCCTAGTATCCTCTCATGTGTGTGCTTGGTCAGCATATCTGAGACGATGTTCCGCTGTCCCAGACCAGTCCAGTAATGGACGGGCCAGTGTGCGTAGTCGTCTTCCGGCTTGTCCGGCGCATGTTTGGTGAACCGGTGGGGTAAGGTTGGTGTGCCCAACGCCCGTACTTTGGTGATACCTCAAGACCACCCAGGAATGCCAGGGAGGTACCCCGCTTCACAGCGGGATCTGACCCTGGGCTAATTGTCTACGGTGGTTCTTCTTGCTTCCACTTCTTTCTACTGTTCATG
- luminescence in supernatant [4]: produced high luminescence

B3: parabovirus: "IRES sourced from the indicated virus" in circular RNA encoding anti-murine CD19 CAR (nucleic acid, listed as Parabovirus sp.)
DNA: TGAACCGTTACGCACCACTCAGTTGGTGTTTGGTGGCACCAATGATGGAACAAAAGGCTACACCACTTGGGCTACGGCCCGCGCCACCTTGTGGCGCAAAGACATTAGAAGAATAGCATACCGCCCACTAGGGCCCTGCAGCCAGCAGGGTAACGGGCAAGCACTTCTGTCTCCCCGGTAGAACGGTATAGGCTGTACCCACGGCCGAAAACTGAACTATCGTTACCCGACTCCGTACTTCGCAAAGCTTAGTAGGAAACTGGAAAGTTCGAGTTATTGACCCGGAGTGTTCCCCCCACTCCAGAAACGCGTGATGAGGGTTGCCACCCCGACCATGGCGACATGGTGGGCATCCCTGCGCTGGCACGCGGCCTCTAAGAGGATAACTCGCTCCTACTGGTAACCGAAGAGCCCCGTGAGCTACGGTTTATTCCTCCGCCTCCCTGAATGCGGCTAATCCTAACCCATGAGCAGTTGCCATAGATCCATATGGTGGACTGTCGTAACGCGTAAGTTGTGGGCGGAACCGACTACTTTGGGATGGCGTGTTTCCTTGTTTTCTCCATTTGTTGTTGTATGGTGACAAGTTATAGATCTCGATCTATAGCGTTTCTTGAGAGATTTCCAAACATTTATTCAAGTCGTACAATTCTTGTGTTTAAGCAGTACAGTGTAAGG
- expression of anti-mouse CD19 CAR [5]: capable of driving expression
